Data taken from ChEMBL document CHEMBL1152028, “The synthesis of 8,8-disubstituted tricyclic analogs of artemisinin” (Bioorg Med Chem Lett, 1997).
≈ marks a conversion by molar mass, not a printed value.

Tested on: Plasmodium falciparum
Experiment: In vitro inhibition of Plasmodium falciparum W2
Format: functional, organism-based

Structure (SMILES): C[C@@H]1CC[C@H]2[C@@H](C)C(=O)O[C@@H]3O[C@@]4(C)CC[C@@H]1[C@]32OO4 [ARTEMISININ]
- IC50: 0.0042 µg/mL (≈ 0.0149 µM)

Structure (SMILES): C[C@@]12CC[C@H]3CC[C@](C)(c4ccccc4)C[C@]3(CO1)OO2
- IC50: 0.013 µg/mL (≈ 0.0451 µM)

Structure (SMILES): C[C@@]12CC[C@H]3CC[C@@](C)(c4ccccc4)C[C@]3(CO1)OO2
- IC50: 0.132 µg/mL (≈ 0.458 µM)
